From article PMC9280689, “Resistance to Powdery Mildew in Qingke Involves the Accumulation of Aromatic Phenolamides Through Jasmonate-Mediated Activation of Defense-Related Genes” (Frontiers in Plant Science, 2022)

Target: T1, HvTBT2 (Hordeum vulgare, UniProt A0A8I6X4Z6)
T1 construct: gene LOC123447140; full-length cDNA in pGEX-6p-1, GST fusion, E. coli BL21(DE3), purified
Test: LC-MS product assay
Format: biochemical
Conditions: acyl donor; amine acceptor 100 μM (which amine not told); 10 mM MgCl2, Tris-HCl pH 7.4, 30 °C
Source text: LC-MS product assay on HvTBT2

T1 sequence (A0A8I6X4Z6 entry or part of it): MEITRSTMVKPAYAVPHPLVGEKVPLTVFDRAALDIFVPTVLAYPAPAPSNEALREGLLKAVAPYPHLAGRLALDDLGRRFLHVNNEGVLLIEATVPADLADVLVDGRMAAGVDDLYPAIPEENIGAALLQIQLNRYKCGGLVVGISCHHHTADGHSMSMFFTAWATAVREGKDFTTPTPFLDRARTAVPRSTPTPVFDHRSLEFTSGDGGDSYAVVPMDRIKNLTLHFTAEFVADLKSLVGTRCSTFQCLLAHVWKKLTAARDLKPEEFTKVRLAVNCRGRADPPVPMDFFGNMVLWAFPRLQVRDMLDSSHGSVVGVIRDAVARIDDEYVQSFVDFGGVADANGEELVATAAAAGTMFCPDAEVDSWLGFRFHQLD

SMILES: COc1cc(/C=C/C(=O)SCCNC(=O)CCNC(=O)[C@H](O)C(C)(C)COP(=O)(O)OP(=O)(O)OC[C@H]2O[C@@H](n3cnc4c(N)ncnc43)[C@H](O)[C@@H]2OP(=O)(O)O)ccc1O [Feruloyl-CoA]
- Km: 382 ± 98.3 µM
